From PMC7180948, “New Insights into 4-Anilinoquinazolines as Inhibitors of Cardiac Troponin I–Interacting Kinase (TNNi3K)” (Molecules, 2020) come the findings set out here.

One experiment has as its target T1, PDFRB (Homo sapiens, UniProt P09619).
T1 construct: gene PDGFRB
Kind of experiment: KINOMEscan at […], single concentration. It counts as binding.

A further experiment deals with T2, ASK1 (Homo sapiens, UniProt Q99683).
T2 construct: gene MAP3K5
Kind of experiment: biochemical. More on the design: KINOMEscan competition binding panel (Eurofins DiscoverX), single concentration, % inhibition. The note with it: read-out: 7 at 1 µM % inhibition. An outline of the steps:
(§1)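 KINOMEscan selectivity screen; >400 human kinases; compound at 1 µM, single concentration.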

The next experiment deals with BRAF(V600E) (Homo sapiens, UniProt P15056, V600E). Kind of experiment: biochemical. The note with it: read-out: 7 at 1 µM % inhibition. More on the design: KINOMEscan competition binding panel (Eurofins DiscoverX), single concentration, % inhibition. In a few lines: as §1
A further experiment has as its target CDK9 (Homo sapiens, UniProt P50750). Kind of experiment: biochemical. More on the design: KINOMEscan competition binding panel (Eurofins DiscoverX), single concentration, % inhibition. The note with it: read-out: 7 at 1 µM % inhibition. An outline of the steps: as §1
A further experiment has as its target CHEK1 (Homo sapiens, UniProt O14757). Kind of experiment: biochemical. More on the design: KINOMEscan competition binding panel (Eurofins DiscoverX), single concentration, % inhibition. The note with it: read-out: 7 at 1 µM % inhibition. In a few lines:
as §1

The next experiment deals with MERTK (Homo sapiens, UniProt Q12866). Briefly: biochemical. More on the design: KINOMEscan competition binding panel (Eurofins DiscoverX), single concentration, % inhibition. The note with it: read-out: 7 at 1 µM % inhibition. In a few lines: as §1
A further experiment deals with PDGFRA (Homo sapiens, UniProt P16234). Kind of experiment: biochemical. More on the design: KINOMEscan competition binding panel (Eurofins DiscoverX), single concentration, % inhibition. The following applies: read-out: 7 at 1 µM % inhibition. In a few lines:
as §1

Another experiment concerns the target T3, PKAC-alpha (Homo sapiens, UniProt P17612).
T3 construct: gene PRKACA
Briefly: biochemical. More on the design: KINOMEscan competition binding panel (Eurofins DiscoverX), single concentration, % inhibition. The following applies: read-out: 7 at 1 µM % inhibition. An outline of the steps: as §1

For a further experiment, the target named is T4, QSK (Homo sapiens, UniProt Q9Y2K2).
T4 construct: gene SIK3
Briefly: biochemical. The note with it: read-out: 7 at 1 µM % inhibition. More on the design: KINOMEscan competition binding panel (Eurofins DiscoverX), single concentration, % inhibition. An outline of the steps: as §1

A further experiment concerns the target RIOK3 (Homo sapiens, UniProt O14730). Briefly: biochemical. More on the design: KINOMEscan competition binding panel (Eurofins DiscoverX), single concentration, % inhibition. The note with it: read-out: 7 at 1 µM % inhibition. An outline of the steps:
as §1

A further experiment deals with T5, TRKC (Homo sapiens, UniProt Q16288).
T5 construct: gene NTRK3
Kind of experiment: biochemical. More on the design: KINOMEscan competition binding panel (Eurofins DiscoverX), single concentration, % inhibition. The note with it: read-out: 7 at 1 µM % inhibition. An outline of the steps: as §1

The next experiment has as its target VRK2 (Homo sapiens, UniProt Q86Y07). Kind of experiment: biochemical. More on the design: KINOMEscan competition binding panel (Eurofins DiscoverX), single concentration, % inhibition. The following applies: read-out: 7 at 1 µM % inhibition. In a few lines: as §1
Experiment [1] addresses T6, ABL1(F317I)-phosphorylated (Homo sapiens, UniProt P00519, F317I).
T6 construct: phosphorylated
Kind of experiment: biochemical. More on the design: KINOMEscan competition binding panel (Eurofins DiscoverX), single concentration, percent inhibition. The note with it: read-out: 15 at 1 µM % inhibition. The protocol:
(§2) KinomeScan® Assay on 7 and 15 was performed as previously described by EuroFins DiscoverX [24]. GSK114 (7) and 15 were submitted for a KINOMEscan® assay to explore the selectivity profile across >400 human kinases at a compound concentration of 1 µM. […] GSK114 (7) is a narrow-spectrum TNNi3K inhibitor but has some potent off-targets including GAK which has been previously reported for this chemotype. […] If utilized together this set of compounds could be useful to investigate TNNi3K biology.

Another experiment addresses T7, CDC2L1 (Homo sapiens, UniProt P21127).
T7 construct: gene CDK11B
Briefly: biochemical. More on the design: KINOMEscan competition binding panel (Eurofins DiscoverX), single concentration, percent inhibition. The note with it: read-out: 15 at 1 µM % inhibition. The protocol: as §2

The target in another experiment is T8, CDK4-cyclinD1 (Homo sapiens, UniProt P11802).
T8 construct: cyclinD1
Briefly: biochemical. More on the design: KINOMEscan competition binding panel (Eurofins DiscoverX), single concentration, percent inhibition. The note with it: read-out: 15 at 1 µM % inhibition. As to the method:
as §2

Another experiment concerns the target EGFR(L747-T751del,Sins) (Homo sapiens, UniProt P00533, DEL747-750/T751S). Briefly: biochemical. More on the design: KINOMEscan competition binding panel (Eurofins DiscoverX), single concentration, percent inhibition. The following applies: read-out: 15 at 1 µM % inhibition. As to the method: as §2
The target in the next experiment is KIT(D816H) (Homo sapiens, UniProt P10721, D816H). Kind of experiment: biochemical. More on the design: KINOMEscan competition binding panel (Eurofins DiscoverX), single concentration, percent inhibition. The following applies: read-out: 15 at 1 µM % inhibition. As to the method:
as §2

Another experiment concerns the target MAP3K2 (Homo sapiens, UniProt Q9Y2U5). Briefly: biochemical. More on the design: KINOMEscan competition binding panel (Eurofins DiscoverX), single concentration, percent inhibition. The following applies: read-out: 15 at 1 µM % inhibition. The protocol:
as §2

The next experiment concerns the target T9, NDR1 (Homo sapiens, UniProt Q15208).
T9 construct: gene STK38
Briefly: biochemical. More on the design: KINOMEscan competition binding panel (Eurofins DiscoverX), single concentration, percent inhibition. The following applies: read-out: 15 at 1 µM % inhibition. The protocol: as §2

The target of the next experiment is NLK (Homo sapiens, UniProt Q9UBE8). Kind of experiment: biochemical. More on the design: KINOMEscan competition binding panel (Eurofins DiscoverX), single concentration, percent inhibition. The note with it: read-out: 15 at 1 µM % inhibition. As to the method:
as §2

For another experiment, the target named is PDPK1 (Homo sapiens, UniProt O15530). Briefly: biochemical. More on the design: KINOMEscan competition binding panel (Eurofins DiscoverX), single concentration, percent inhibition. The note with it: read-out: 15 at 1 µM % inhibition. The protocol:
as §2

In another experiment the target is PIP5K1A (Homo sapiens, UniProt Q99755). Briefly: biochemical. The note with it: read-out: 15 at 1 µM % inhibition. More on the design: KINOMEscan competition binding panel (Eurofins DiscoverX), single concentration, percent inhibition. The protocol: as §2
The target in experiment [2] is T10, RPS6KA4(Kin.Dom.2-C-terminal) (Homo sapiens, UniProt O75676).
T10 construct: Kin.Dom.2-C-terminal
Kind of experiment: biochemical. More on the design: KINOMEscan competition binding panel (Eurofins DiscoverX), single concentration, percent inhibition. The following applies: read-out: 15 at 1 µM % inhibition. The protocol: as §2

A further experiment concerns the target TRPM6 (Homo sapiens, UniProt Q9BX84). Briefly: biochemical. More on the design: KINOMEscan competition binding panel (Eurofins DiscoverX), single concentration, percent inhibition. The note with it: read-out: 15 at 1 µM % inhibition. The protocol:
as §2

T6 sequence (P00519 whole entry F317I): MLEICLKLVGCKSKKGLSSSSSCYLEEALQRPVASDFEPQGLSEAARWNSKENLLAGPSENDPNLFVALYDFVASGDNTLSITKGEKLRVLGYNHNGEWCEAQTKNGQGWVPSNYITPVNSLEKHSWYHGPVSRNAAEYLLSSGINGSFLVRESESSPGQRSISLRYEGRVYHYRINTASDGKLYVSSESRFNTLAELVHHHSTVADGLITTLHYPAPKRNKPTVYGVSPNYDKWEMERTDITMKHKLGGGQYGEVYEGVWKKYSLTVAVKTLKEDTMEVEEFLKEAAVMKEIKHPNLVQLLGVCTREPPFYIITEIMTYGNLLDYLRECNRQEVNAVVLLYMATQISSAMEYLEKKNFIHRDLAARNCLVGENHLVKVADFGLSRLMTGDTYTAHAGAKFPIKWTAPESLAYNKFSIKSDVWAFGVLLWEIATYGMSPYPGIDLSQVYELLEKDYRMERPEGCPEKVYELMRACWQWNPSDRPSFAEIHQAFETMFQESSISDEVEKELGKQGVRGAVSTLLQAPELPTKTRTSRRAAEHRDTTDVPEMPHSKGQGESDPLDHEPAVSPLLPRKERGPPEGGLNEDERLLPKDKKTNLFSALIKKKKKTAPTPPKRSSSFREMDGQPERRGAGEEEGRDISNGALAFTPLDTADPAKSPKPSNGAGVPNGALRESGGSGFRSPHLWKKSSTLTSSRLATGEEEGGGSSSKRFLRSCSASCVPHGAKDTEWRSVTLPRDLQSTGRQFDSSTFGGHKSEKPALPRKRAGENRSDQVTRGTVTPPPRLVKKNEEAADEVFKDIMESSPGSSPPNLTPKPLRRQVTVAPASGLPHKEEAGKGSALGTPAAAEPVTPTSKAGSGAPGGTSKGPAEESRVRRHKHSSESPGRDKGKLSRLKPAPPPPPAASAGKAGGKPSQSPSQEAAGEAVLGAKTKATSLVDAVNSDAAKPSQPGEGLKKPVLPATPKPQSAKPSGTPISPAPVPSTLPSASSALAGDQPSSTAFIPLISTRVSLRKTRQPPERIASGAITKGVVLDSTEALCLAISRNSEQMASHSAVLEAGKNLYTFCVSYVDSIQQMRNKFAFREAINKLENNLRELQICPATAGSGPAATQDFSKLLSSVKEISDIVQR
PDPK1, sequence (O15530 whole entry): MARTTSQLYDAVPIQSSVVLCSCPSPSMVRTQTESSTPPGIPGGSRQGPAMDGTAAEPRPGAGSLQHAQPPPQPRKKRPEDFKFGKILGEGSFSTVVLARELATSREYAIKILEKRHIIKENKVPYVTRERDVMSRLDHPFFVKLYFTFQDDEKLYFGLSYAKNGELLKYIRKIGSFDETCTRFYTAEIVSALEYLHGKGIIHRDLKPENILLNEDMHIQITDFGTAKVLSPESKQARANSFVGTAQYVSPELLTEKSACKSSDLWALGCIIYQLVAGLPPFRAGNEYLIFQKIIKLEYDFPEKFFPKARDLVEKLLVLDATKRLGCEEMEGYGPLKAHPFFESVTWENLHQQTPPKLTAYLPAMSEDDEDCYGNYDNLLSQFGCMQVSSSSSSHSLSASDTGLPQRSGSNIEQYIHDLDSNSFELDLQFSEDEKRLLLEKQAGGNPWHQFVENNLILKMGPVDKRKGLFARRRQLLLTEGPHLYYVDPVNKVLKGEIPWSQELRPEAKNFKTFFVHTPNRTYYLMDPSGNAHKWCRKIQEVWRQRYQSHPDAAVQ
T7 sequence (P21127 whole entry): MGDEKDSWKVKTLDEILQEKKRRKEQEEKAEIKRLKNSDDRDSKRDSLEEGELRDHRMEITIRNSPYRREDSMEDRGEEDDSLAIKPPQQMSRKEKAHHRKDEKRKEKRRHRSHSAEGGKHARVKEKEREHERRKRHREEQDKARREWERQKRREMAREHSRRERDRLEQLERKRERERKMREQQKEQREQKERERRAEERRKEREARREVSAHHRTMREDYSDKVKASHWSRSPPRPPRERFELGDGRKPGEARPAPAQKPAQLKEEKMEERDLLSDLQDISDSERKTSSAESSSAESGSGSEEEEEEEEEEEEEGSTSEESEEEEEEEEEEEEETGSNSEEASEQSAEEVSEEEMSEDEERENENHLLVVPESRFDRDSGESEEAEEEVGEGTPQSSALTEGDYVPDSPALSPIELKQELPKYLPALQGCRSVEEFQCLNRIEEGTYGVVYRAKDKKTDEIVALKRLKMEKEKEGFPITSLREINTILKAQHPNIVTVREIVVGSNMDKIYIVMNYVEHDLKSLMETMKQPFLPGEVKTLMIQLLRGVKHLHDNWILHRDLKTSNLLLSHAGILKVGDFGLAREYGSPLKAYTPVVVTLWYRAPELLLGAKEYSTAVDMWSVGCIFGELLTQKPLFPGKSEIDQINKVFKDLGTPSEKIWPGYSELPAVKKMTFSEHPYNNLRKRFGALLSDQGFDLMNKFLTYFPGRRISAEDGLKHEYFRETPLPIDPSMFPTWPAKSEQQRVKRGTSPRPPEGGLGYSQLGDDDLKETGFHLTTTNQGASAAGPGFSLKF
CDK9, sequence (P50750 whole entry): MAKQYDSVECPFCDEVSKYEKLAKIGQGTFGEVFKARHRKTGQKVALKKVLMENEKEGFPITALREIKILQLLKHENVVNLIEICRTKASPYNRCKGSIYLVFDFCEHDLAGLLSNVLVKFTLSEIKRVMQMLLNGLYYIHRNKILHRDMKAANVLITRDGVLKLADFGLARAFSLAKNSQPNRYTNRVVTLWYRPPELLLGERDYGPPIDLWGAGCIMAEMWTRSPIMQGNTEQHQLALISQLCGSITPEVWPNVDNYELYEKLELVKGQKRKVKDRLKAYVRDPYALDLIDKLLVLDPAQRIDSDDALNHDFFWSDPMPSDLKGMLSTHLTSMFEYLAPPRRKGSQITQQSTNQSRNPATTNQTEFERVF
CHEK1, sequence (O14757 whole entry): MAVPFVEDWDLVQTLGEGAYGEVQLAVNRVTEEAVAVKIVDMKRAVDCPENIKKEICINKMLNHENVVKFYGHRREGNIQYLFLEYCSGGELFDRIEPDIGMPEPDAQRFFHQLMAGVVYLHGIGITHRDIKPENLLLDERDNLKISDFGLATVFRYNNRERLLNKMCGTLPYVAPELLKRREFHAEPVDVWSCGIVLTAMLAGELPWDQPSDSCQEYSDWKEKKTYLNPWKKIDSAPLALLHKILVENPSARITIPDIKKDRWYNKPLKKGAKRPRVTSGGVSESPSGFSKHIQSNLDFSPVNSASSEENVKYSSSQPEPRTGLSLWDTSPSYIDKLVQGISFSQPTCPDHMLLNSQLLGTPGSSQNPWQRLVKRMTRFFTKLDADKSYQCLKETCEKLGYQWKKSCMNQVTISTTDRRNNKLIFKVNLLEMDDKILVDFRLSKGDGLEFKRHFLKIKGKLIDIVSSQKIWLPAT
T8 sequence (P11802 whole entry): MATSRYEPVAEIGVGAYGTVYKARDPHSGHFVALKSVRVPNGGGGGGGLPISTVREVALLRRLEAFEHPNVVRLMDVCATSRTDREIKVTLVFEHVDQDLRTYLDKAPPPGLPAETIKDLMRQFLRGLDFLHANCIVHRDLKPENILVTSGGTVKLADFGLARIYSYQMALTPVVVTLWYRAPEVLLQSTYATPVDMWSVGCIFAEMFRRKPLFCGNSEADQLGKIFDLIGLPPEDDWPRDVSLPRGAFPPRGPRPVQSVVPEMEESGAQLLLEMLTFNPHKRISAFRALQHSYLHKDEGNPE
T8 sequence (P24385 whole entry partner): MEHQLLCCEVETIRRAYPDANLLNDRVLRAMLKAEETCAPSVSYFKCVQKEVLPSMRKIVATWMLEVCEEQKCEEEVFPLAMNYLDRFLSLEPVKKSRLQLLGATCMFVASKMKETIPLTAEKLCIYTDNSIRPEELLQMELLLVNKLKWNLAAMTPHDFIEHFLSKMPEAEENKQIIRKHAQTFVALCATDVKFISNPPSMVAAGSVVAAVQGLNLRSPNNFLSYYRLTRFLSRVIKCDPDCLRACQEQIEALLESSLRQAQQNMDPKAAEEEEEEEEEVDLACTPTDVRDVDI
BRAF(V600E), sequence (P15056 whole entry V600E): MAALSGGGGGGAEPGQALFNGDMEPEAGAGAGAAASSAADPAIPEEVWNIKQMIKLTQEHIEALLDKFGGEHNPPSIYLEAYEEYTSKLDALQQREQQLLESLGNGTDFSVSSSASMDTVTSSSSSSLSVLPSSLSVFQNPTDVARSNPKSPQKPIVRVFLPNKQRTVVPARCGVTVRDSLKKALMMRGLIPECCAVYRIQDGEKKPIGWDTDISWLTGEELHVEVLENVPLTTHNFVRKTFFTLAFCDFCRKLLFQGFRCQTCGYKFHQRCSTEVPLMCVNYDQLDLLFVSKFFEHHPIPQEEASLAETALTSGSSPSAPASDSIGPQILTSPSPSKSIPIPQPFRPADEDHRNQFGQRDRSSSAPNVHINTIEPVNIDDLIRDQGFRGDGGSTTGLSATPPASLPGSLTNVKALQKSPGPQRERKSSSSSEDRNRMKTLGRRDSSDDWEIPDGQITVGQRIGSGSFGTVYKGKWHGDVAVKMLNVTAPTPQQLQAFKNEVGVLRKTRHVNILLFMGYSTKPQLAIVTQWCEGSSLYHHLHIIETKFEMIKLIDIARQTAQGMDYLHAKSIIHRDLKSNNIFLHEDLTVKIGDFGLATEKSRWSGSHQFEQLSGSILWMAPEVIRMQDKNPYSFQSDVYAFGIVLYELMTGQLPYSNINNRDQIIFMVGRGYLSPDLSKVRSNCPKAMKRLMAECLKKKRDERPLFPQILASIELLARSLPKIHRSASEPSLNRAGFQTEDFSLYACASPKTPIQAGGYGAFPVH

`CNS(=O)(=O)c1ccc(N(C)C)c(Nc2ncnc3cc(OC)c(OC)cc23)c1` [compound 7, 3-((6,7-dimethoxyquinazolin-4-yl)amino)-4-(dimethylamino)-N-methylbenzenesulfonamide]: the inhibition (usually the percentage by which the read-out fell short of the control) at 1 µM turned out to be 91% on PDFRB; 0% at ASK1; 83% at BRAF(V600E); 0% at CDK9; 0% on CHEK1; 0% at MERTK. For the same compound, the inhibition at 1 µM on PDGFRA amounted to 69%; at PKAC-alpha, 6%; at QSK, 52%; at RIOK3, 0%; on TRKC, 0%; at VRK2, 29%.
Take `CNS(=O)(=O)c1ccc(N(C)C)c(Nc2nc(C)nc3cc(OC)c(OC)cc23)c1` [compound 15, 3-((6,7-dimethoxy-2-methylquinazolin-4-yl)amino)-4-(dimethylamino)-N-methylbenzenesulfonamide]: the inhibition at 1 µM in [1] turned out to be 22%; on CDC2L1, 7%; at CDK4-cyclinD1 it was 36%; at EGFR(L747-T751del,Sins), 0%; at KIT(D816H), 16%; on MAP3K2 it was 18%. In addition, the inhibition at 1 µM at NDR1 was determined as 13%; at NLK, 0%; on PDPK1, 0%; at PIP5K1A it was 22%; in [2], 16%; on TRPM6, 6%.
